Assay results as given in patent US11136601B2, “Conversion of S-lignin compounds to useful intermediates” (Alliance for Sustainable Energy, LLC, priority 2018, dated 2021).

Experiments:
[1] = biological target: T1, VanAB (vanillate demethylase; purified VanA and VanB subunits) (Pseudomonas putida, UniProt Q88GI6); test: VanAB in vitro enzymatic assay (kinetics and specific activity, NADPH consumption at 340 nm); settings: for VanAB specific activity: 100 μM substrate, pH 7.5; for VanAB specific activity / Kcat: 100 μM NADPH; for Kcat: Michaelis-Menten kinetics, 20 mM Tris-HCl pH 7.5
Protocol: VanAB activity was also tested towards vanillate analogous substrates such as vanillin, ferulic acid, sinapinic acid, methyl vanillate, ethyl vanillate, and guaiacol.
(§1) Activity assay were followed by cofactor NADPH consumption monitored spectrophotometrically at 340 nm.

[2] = test system: P. putida KT2440 wild-type; test: Toxicity assessment of S-lignin derived monomers, growth (OD600) of wild-type strain; assay type: cell-based, Pseudomonas putida; settings: wild-type KT2440, M9 minimal media with 20 mM glucose
Source text: (§2) FIG. 9 illustrates: Panel A. Wild-type P. putida KT24401 and Panel B. P. putida CJ486 (second copy vanAB overexpressed in genome), both according to some embodiments of the present disclosure. […] Cultures were sampled periodically to evaluate growth by OD600 and metabolite concentrations in the media using HPLC. Each point represents the average of two measurements with error bars representing their range.
(§3) FIG. 10 illustrates: Panel A. Wild-type P. putida KT2440; and Panel B. P. putida CJ486 (second copy vanAB overexpressed in genome), both according to some embodiments of the present disclosure. Cells were grown in M9 minimal medium containing 20 mM glucose and various concentrations of SAL. Cultures were sampled periodically to evaluate growth by OD600 and metabolite concentrations in the media using HPLC. Each point represents the average of two measurements with error bars representing their range.
as §2, with “11” for “9”, “KT2440;” for “KT24401”
(§4) To evaluate this, the engineered strain CJ486 and wild-type strain were grown in M9 minimal media containing 20 mM glucose and various concentrations of the S-lignin monomers.
(§5) Strains were cultivated overnight in LB medium, washed once with 1×M9 medium (6.78 g/L disodium phosphate, 3 g/L monopotassium phosphate, 0.5 g/L NaCl, 1 g/L NH4Cl, 2 mM MgSO4, 100 μM CaCl2), and 18 μM FeSO4, pH 7.0) and used to inoculate 125 mL baffled flasks containing M9 minimal media supplemented with various concentrations of S-lignin monomers (SA, 3-MGA or syringaldehyde (SAL), stock solution dissolved in 2% DMSO) and 20 mM glucose in some cases, to an optical density of 0.1 and incubated shaking at 225 rpm, 30° C. Cultures were sampled periodically by removing 1 mL that was used to measure the OD600 using a spectrophotometer (DU640 Beckman Coulter). In the case of 3-MGA provided to wild-type strain KT2440, SN166 and SN175, the reaction was downscaled to 50 mL baffled flasks containing 10 mL minimal media and the experiment was performed in duplicate.

[3] = test system: P. putida CJ486 (second copy vanAB overexpressed in genome); test: Toxicity assessment of S-lignin derived monomers, growth (OD600) of engineered strain CJ486; assay type: cell-based, Pseudomonas putida; settings: strain CJ486, M9 minimal media with 20 mM glucose
Source text: as §2, §3
as §2, with “11” for “9”, “KT2440;” for “KT24401”
as §4, §5

[4] = biological target: T1, VanAB (vanillate demethylase; purified VanA and VanB subunits); test: VanAB in vitro time course of substrate consumption and product formation (HPLC); assay type: biochemical, P. putida KT2440; settings: 30 minutes time course, 100 μM substrate, VanAB 1.3 μM, room temperature
Protocol: FIG. 13 illustrates time course of VA consumption/PCA production and SA consumption/3-MGA production, according to some embodiments of the present disclosure. VanAB (1.3 μM) was incubated with 100 μM VA or SA at room temperature, in the presence of 0.5 μM NADPH. Results are an average of at least two experiments.
FIG. 14 illustrates time-course of 3MGA consumption and GA formation, according to some embodiments of the present disclosure.
as §1
Metabolites analysis: Samples from the in vivo experiments were centrifuged to remove the cells and the supernatants were filtered through a 0.2 μm syringe filter and metabolite concentrations were analyzed on an Agilent 1100 series HPLC equipped with Phenominex Rezex™ RFQ-Fast Acid H^+ (8%), LC Column, a diode array detector, and refractive index detector and a 0.01 N H2SO4 mobile phase. The products were identified by comparing the retention times and spectral profiles with pure compounds. Shake flask experiments were performed in triplicate and the standard deviation of the triplicate measurement were calculated using the following equation: in which x is each value in a sample, x is the average of the values, and n is the number of values. The same method was employed to analyze the metabolites from the in vitro reaction. PDC compounds was analyzed and quantified by ^1H NMR spectrum. […], of fermentation broth was diluted in 400 μL of deuterium oxide (Isotope Laboratories Inc.) and 50 μL of deuterium oxide containing known mass of the internal standard succinic acid.

[5] = substrate: COc1cc(C(=O)O)ccc1O; test: purified protein, by the assay type; settings: other: apparent constant (substrate inhibition kinetics); NADPH measured in the presence of VA; pH 7.5; 30.0 °C
[6] = substrate: COc1cc(C(=O)O)cc(OC)c1O; test: purified protein, by the assay type; settings: other: Michaelis-Menten kinetics, 100 μM NADPH, 20 mM Tris-HCl pH 7.5, 30.0 °C
[7] = apparent constant (substrate inhibition kinetics), NADPH measured in the presence of VA

T1 sequence (Q88GI5 entry or part of it, one chain of several): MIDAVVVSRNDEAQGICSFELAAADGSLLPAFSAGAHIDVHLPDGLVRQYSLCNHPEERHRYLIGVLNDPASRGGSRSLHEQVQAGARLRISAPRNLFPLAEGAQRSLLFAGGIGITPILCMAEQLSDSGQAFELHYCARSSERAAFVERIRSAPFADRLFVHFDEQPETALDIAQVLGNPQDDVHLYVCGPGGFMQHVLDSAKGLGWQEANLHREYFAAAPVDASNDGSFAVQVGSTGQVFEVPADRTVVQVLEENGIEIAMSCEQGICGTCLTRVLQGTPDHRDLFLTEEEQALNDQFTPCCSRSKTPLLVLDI

## COc1cc(C(=O)O)cc(O)c1O [3-MGA, 3-O-methyl gallate]
[1]
  VanAB specific activity: 264 ± 86 U/mg
  Kcat: 0.435 ± 0.0467 s⁻¹
[1]; listed as 3MGA
  Kcat: 0.435 ± 0.0467 s⁻¹

## CCOC(=O)c1ccc(O)c(OC)c1 [Ethylvanillate, ethyl vanillate]
[1]
  VanAB specific activity: 100 ± 27 U/mg
[1]; listed as ethyl vanillate
  VanAB specific activity: 100±27 U/mg

## O=C(O)c1cc(O)c(O)c(O)c1 [Gallate, gallic acid]
[2]
  concentration at which growth was completely inhibited (no growth): 50000 µM
  highest concentration tolerated / that allowed growth: 20 mM
[3]
  concentration at which growth was completely inhibited (no growth): 50000 µM
  highest concentration tolerated / that allowed growth: 20 mM

## COc1ccccc1O [Guieicol, guaiacol]
[1]
  VanAB specific activity: 188 ± 16 U/mg
[1]; listed as guaiacol
  VanAB specific activity: 188±16 U/mg

## NC(=O)C1=CN([C@@H]2O[C@H](COP(=O)(O)OP(=O)(O)OC[C@H]3O[C@@H](n4cnc5c(N)ncnc54)[C@H](OP(=O)(O)O)[C@@H]3O)[C@@H](O)[C@H]2O)C=CC1 [NADPH, reference compound]
[1]; [7]
  KMapp: 26.7 ± 3.7 µM
  Kcat^app: 0.045 ± 0.0183 s⁻¹
[1]; read-out: Ki (substrate inhibition), substrate inhibition kinetics, NADPH-dependent inhibition measured in the presence of VA
  Ki: 25.3 ± 7.4 µM

## COc1cc(C=O)cc(OC)c1O [SAL, syringaldehyde]
[2]
  concentration at which growth was completely inhibited (no growth): 50000 µM
  highest concentration tolerated / that allowed growth: 20 mM
[3]
  concentration at which growth was completely inhibited (no growth): 50000 µM
  highest concentration tolerated / that allowed growth: 20 mM

## COc1cc(C(=O)O)cc(OC)c1O [Syringate, syringic acid]
[2]
  highest concentration tolerated / that allowed growth: at least 120 mM
[1]
  VanAB specific activity: 704 ± 103 U/mg
[1]; listed as SA
  Kcat: 1.13 ± 0.0683 s⁻¹
[3]
  highest concentration tolerated / that allowed growth: at least 120 mM
[4]
  product formed (protocatechuate from VA; 3-MGA from SA): 9 µM
  residual substrate concentration: 70 µM

## COc1cc(C(=O)O)ccc1O [Vanillate, vanillate]
[1]
  VanAB specific activity: 403 ± 59 U/mg
[4]
  product formed (protocatechuate from VA; 3-MGA from SA): 47 µM
  substrate converted (metabolized): 58 µM

## COc1cc(C=O)ccc1O [Vanillin, vanillin]
[1]
  VanAB specific activity: 49 ± 18 U/mg
[1]; listed as vanillin
  VanAB specific activity: 49±18 U/mg
[1]; VanAB specific activity relative to VA
  fold lower specific activity in comparison to VA: 10 fold

B1: VanAB (vanillate demethylase; purified VanA and VanB subunits) (Pseudomonas putida KT2440) (protein)
chain: MYPKNTWYVACTPDEIATKPLGRQICGEKIVFYRARENQVAAVEDFCPHRGAPLSLGYVEDGNLVCGYHGLVMGCDGKTVSMPGQRVRGFPCNKTFAAVERYGFIWVWPGDQAQADPALIPHLEWAVSDEWAYGGGLFHIGCDYRLMIDNLMDLTHETYVHASSIGQKEIDEAPPVTTVTGDEVVTARHMENIMAPPFWRMALRGNGLADDVPVDRWQICRFTPPSHVLIEVGVAHAGKGGYHAEAQHKASSIVVDFITPESDTSIWYFWGMARNFAAHDQTLTDNIREGQGKIFSEDLEMLERQQQNLLAHPERNLLKLNIDAGGVQSRKVLERIIAQERAPQPQLIATSANPA
[5]
  Km: 4.3 ± 3.1 µM
  kcat: 0.28 ± 0.0317 s⁻¹
[6]
  Km: 113.9 ± 21.5 µM
  kcat: 1.13 ± 0.0683 s⁻¹
